From the supplement of paper PMC4932681
Where a name gives a salt, the structure may show the parent alone.

Experiments:
Assay in all cases: viability inhibition at highest dose (% inhibition); higher = more growth inhibition
BT-474 Tam1 = details: 4-OH-tamoxifen in medium 1 µM; 72 h
Method: (§1)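 Percent inhibition of viability (CellTiter-Glo, 72 h) at the highest tested concentration (D5), normalised to DMSO (0%) and 100 µM benzethonium chloride (100%). Resistant lines and the 'in 1µM tamoxifen' arms were tested in 1 µM 4-OH-tamoxifen.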

BT-474 Tam2 = details: 4-OH-tamoxifen in medium 1 µM; 72 h
Method: as §1

BT-474 = details: 72 h
Method: as §1

MCF-7 Tam1 = details: 4-OH-tamoxifen in medium 1 µM; 72 h
Method: as §1

MCF-7 = details: 72 h
Method: as §1

T-47D Tam1 = details: 4-OH-tamoxifen in medium 1 µM; 72 h
Method: as §1

T-47D Tam2 = details: 4-OH-tamoxifen in medium 1 µM; 72 h
Method: as §1

T-47D = details: 72 h
Method: as §1

ZR-75-1 Tam1 = details: 4-OH-tamoxifen in medium 1 µM; 72 h
Method: as §1

ZR-75-1 Tam2 = details: 4-OH-tamoxifen in medium 1 µM; 72 h
Method: as §1

ZR-75-1 = details: 72 h
Method: as §1

SMILES	viability inhibition at highest dose (BT-474 Tam1)	viability inhibition at highest dose (BT-474 Tam2)	viability inhibition at highest dose (BT-474; 4-OH-tamoxifen in medium 0 µM)	viability inhibition at highest dose (BT-474; 4-OH-tamoxifen in medium 1 µM)	viability inhibition at highest dose (MCF-7 Tam1)	viability inhibition at highest dose (MCF-7; 4-OH-tamoxifen in medium 0 µM)	viability inhibition at highest dose (MCF-7; 4-OH-tamoxifen in medium 1 µM)	viability inhibition at highest dose (T-47D Tam1)	viability inhibition at highest dose (T-47D Tam2)	viability inhibition at highest dose (T-47D; 4-OH-tamoxifen in medium 0 µM)	viability inhibition at highest dose (T-47D; 4-OH-tamoxifen in medium 1 µM)	viability inhibition at highest dose (ZR-75-1 Tam1)	viability inhibition at highest dose (ZR-75-1 Tam2)	viability inhibition at highest dose (ZR-75-1; 4-OH-tamoxifen in medium 0 µM)	viability inhibition at highest dose (ZR-75-1; 4-OH-tamoxifen in medium 1 µM)
Nc1ccn([C@@H]2O[C@H](CO)[C@@H](O)C2(F)F)c(=O)n1 [Gemcitabine] (drug 1000 nM)	1.24	-10.3	-11.7	-4.83	-2.89	25.8	4.61	25.9	21.5	32.3	7.44	9.23	11.2	16.9	19.4
CC(=O)O[C@H]1C(=O)[C@@]2(C)[C@H]([C@H](OC(=O)c3ccccc3)[C@]3(O)C[C@H](OC(=O)[C@H](O)[C@@H](NC(=O)c4ccccc4)c4ccccc4)C(C)=C1C3(C)C)[C@]1(OC(C)=O)CO[C@@H]1C[C@@H]2O [Paclitaxel] (drug 1000 nM)	35.2	25.5	42.7	55.7	-17.1	28.8	25.8	26	35.9	47	15.8	4.53	0.492	26.9	4.99
Oc1ccc2c(c1)CC[C@H](c1ccccc1)[C@@H]2c1ccc(OCCN2CCCC2)cc1 [Lasofoxifene] (drug 1000 nM)	34.3	12.4	-9.14	24.2	-2.47	3.8	25	2.67	5.06	-21.7	-10.6	3.54	2.17	-9.97	-2.22
Cn1cc(C2=C(c3cn(C4CCN(Cc5ccccn5)CC4)c4ccccc34)C(=O)NC2=O)c2ccccc21 [Enzastaurin] (drug 10000 nM)	-11.4	-1.15	-3.38	-20.9	-11.6	-11	-13.8	-9.95	-0.917	-15.8	-13.2	1.19	-0.91	-10.7	-19.1
Nc1nc(F)nc2c1ncn2[C@@H]1O[C@H](CO)[C@@H](O)[C@@H]1O [Fludarabine] (drug 10000 nM)	2.46	4.57	-6.6	-12.5	-4.15	-24.7	10	20.4	-0.0717	-8	-12.2	-3.09	-3.77	-0.221	-4.24
CC(C)C(=O)Nc1ccc([N+](=O)[O-])c(C(F)(F)F)c1 [Flutamide] (drug 10000 nM)	6.08	6.26	-10.2	-11.4	-3.99	-18	15.9	6.02	11.2	0.571	-1.73	-0.0944	-5.1	-10.7	-3.17
CC1=C2C[C@H]3[C@@H](CC=C4C[C@@H](O)CC[C@@]43C)[C@@H]2CC[C@]12O[C@@H]1C[C@H](C)CN[C@H]1[C@H]2C [Cyclopamine] (drug 10000 nM)	0.632	-2.39	-4.32	-7.93	-8.03	-20.5	-1.78	-2.15	1.98	-17.5	-14	-2.07	-6.35	-9.96	-4.21
Cc1c(N)nc([C@H](CC(N)=O)NC[C@H](N)C(N)=O)nc1C(=O)N[C@H](C(=O)N[C@H](C)[C@@H](O)[C@H](C)C(=O)N[C@H](C(=O)NCCc1nc(-c2nc(C(=O)NCCC[S+](C)C)cs2)cs1)[C@@H](C)O)[C@@H](OC1OC(CO)C(O)C(O)C1OC1OC(CO)C(O)C(OC(N)=O)C1O)c1cnc[nH]1 (stereo not given in full) [Bleomycin] (drug 10000 nM)	-4.38	-5.24	-15.7	-12	-1.39	12.6	11.9	23.9	-17.7	19.4	-2.9	12.1	-0.492	22.4	9.45
CCNC(=O)CCC/C=C\C[C@@H]1[C@@H](/C=C/[C@@H](O)CCc2ccccc2)[C@H](O)C[C@@H]1O [Bimatoprost] (drug 5500 nM)	-14.6	-16.2	-10.2	-22.1	-5.08	10.1	-1.71	-9.33	-4.37	-18.2	-17.9	-5.04	-15.8	-13.7	-4.04
c1ccc([C@H]2CN3CCSC3=N2)cc1 [Levamisole, (Tetramisole hydrochloride)] (drug 10000 nM)	-1.57	4.72	-0.587	-3.62	-9.5	-9.38	1.67	-4.38	3.27	1.99	-2.51	-0.419	4.7	1.62	3.25
O=C(O)C1(C(=O)O)CCC1.[NH2-].[NH2-].[Pt+2] [Carboplatin] (drug 10000 nM)	-1.28	3.89	-12.2	-19	-6.52	1.69	6.48	-4.98	1.93	-16.3	-18	2.36	-0.671	-16.2	-1.87
Cn1nnc2c(C(N)=O)ncn2c1=O [Temozolomide] (drug 10000 nM)	19.9	-6.27	-5.95	22.9	1.07	-13.8	-0.417	1.44	-13	0.803	1.13	6.09	0.839	11.9	-5.2
COc1c2occc2cc2ccc(=O)oc12 [Methoxsalen] (drug 10000 nM)	10.8	1.89	-4.57	7.92	-6.39	-6.63	1.6	-4.99	7.26	-17.2	-5.34	2.54	-6.82	-8.57	1.74
Cn1c(=O)n(-c2ccc(C(C)(C)C#N)cc2)c2c3cc(-c4cnc5ccccc5c4)ccc3ncc21 [Dactolisib (NVP-BEZ235)] (drug 1000 nM)	40.8	29.2	27.6	39.4	32.4	67.7	45	49.1	29.7	54.9	69.7	49.4	57	51	41.8
CCN(CC)CCOc1ccc(C(=C(Cl)c2ccccc2)c2ccccc2)cc1 [Clomifene citrate] (drug 10000 nM)	86.8	97.3	85.5	84	57.7	12.8	85.5	40.8	48.9	21.6	26.1	24.1	42.3	23.4	36.7
Oc1ncc(N(CCCl)CCCl)c(O)n1 [Uracil mustard] (drug 10000 nM)	6.37	6.63	-4.25	-3.71	-4.85	-11.6	11.6	-0.922	1.54	-4.46	-6.35	3.73	2.56	0.272	-3.68
CC(=O)Nc1ccc(C(=O)Nc2ccccc2N)cc1 [Tacedinaline (CI-994)] (drug 1000 nM)	-4.04	-4.77	1.78	-3.82	0.399	-10.9	-11.9	6.74	15.3	0.774	11.3	-0.987	6.17	-0.612	5.35
CN(C)c1nc(N(C)C)nc(N(C)C)n1 [Altretamine] (drug 10000 nM)	4.18	0.399	-14.8	-18.3	-9.06	-20.5	10.6	52.4	5.82	-20.9	18.5	0.782	-11.8	-19.3	-9.44
CN(C)C/C=C/C(=O)Nc1cc2c(Nc3ccc(F)c(Cl)c3)ncnc2cc1O[C@H]1CCOC1 [Afatinib (BIBW2992, Tovok)] (drug 1000 nM)	95.9	95.5	82.2	93.8	-0.193	-11.5	19	19.8	16.6	0.755	-3.23	0.501	-3.77	-5.16	1.48
Nc1cccc2c1CN(C1CCC(=O)NC1=O)C2=O (stereo not given) [Lenalidomide] (drug 10000 nM)	5.58	2.75	-5.28	-16.5	-1.73	-4.99	29.1	-2.5	-4.53	-20.4	-6.19	2.97	-0.811	-8.43	-6.55
C[C@]12CC[C@H](O)CC1=CC[C@@H]1[C@@H]2CC[C@]2(C)C(c3cccnc3)=CC[C@@H]12 [Abiraterone (CB-7598)] (drug 5000 nM)	6.31	-1	-6.23	-14.7	-8.38	-13.6	-10.3	-5.53	-1.44	-18.4	-16.6	-0.517	-3.39	-6.86	-7.24
COc1cccc2cc(-c3nc([C@H]4CC[C@H](C(=O)O)CC4)n4ncnc(N)c34)[nH]c12 [OSI-027] (drug 10000 nM)	38.1	35.6	35.5	47.5	30.1	44.4	43.9	55.6	38	62.6	42.7	52.6	65.5	60.5	52.9
O=C1c2c(O)ccc(O)c2C(=O)c2c(NCCNCCO)ccc(NCCNCCO)c21 [Mitoxantrone] (drug 1000 nM)	-23.8	-13.6	3.96	-1.95	1.72	-3.19	7.73	47.8	21.5	29.5	2.9	21.3	24.9	29.7	20.2
CCS(=O)(=O)c1cccc(-c2cc(C(=O)NC3CCN(C)CC3)c(C)c3[nH]c4ncc(C)cc4c23)c1 [TAK-901] (drug 1000 nM)	30.7	25.1	-6.02	30.4	9.8	16.5	24.8	66.5	34.6	40.7	18.2	-9.15	-10.7	-12.6	-15.9
CC(=O)c1c(C)c2cnc(Nc3ccc(N4CCNCC4)cn3)nc2n(C2CCCC2)c1=O (drug 10000 nM)	6.18	9.88	1.33	4.19	21.2	33.1	27.9	29.5	21.5	28.1	0.74	18.7	24.2	2.14	20.6
N#Cc1ccc(COC[C@H]2O[C@@H](n3c(NCc4ccc(Cl)c(Cl)c4)nc4c(N)ncnc43)[C@H](O)[C@@H]2O)cc1 (drug 10000 nM)	49.5	38.6	20.7	65.8	25.6	46.5	49.6	48	34.5	42.5	29	46.4	51.2	55.3	49.5
